Drawing on US8455520B2, “Soluble epoxide hydrolase inhibitors, compositions containing such compounds and methods of treatment” (Merck Sharp & Dohme Corp., priority 2007, dated 2013), this text covers IC50 for 48 compounds.

A value given as a limit tells only on which side of the number the result lay.

The IC50 is the concentration that inhibits the measured activity by half.

The target of this test is T1, human sEH enzyme (Homo sapiens, UniProt P34913).
T1 construct: His-tag (N, cleaved yes); made in house; host or cells: E. coli
T1 sequence (P34913 1-555): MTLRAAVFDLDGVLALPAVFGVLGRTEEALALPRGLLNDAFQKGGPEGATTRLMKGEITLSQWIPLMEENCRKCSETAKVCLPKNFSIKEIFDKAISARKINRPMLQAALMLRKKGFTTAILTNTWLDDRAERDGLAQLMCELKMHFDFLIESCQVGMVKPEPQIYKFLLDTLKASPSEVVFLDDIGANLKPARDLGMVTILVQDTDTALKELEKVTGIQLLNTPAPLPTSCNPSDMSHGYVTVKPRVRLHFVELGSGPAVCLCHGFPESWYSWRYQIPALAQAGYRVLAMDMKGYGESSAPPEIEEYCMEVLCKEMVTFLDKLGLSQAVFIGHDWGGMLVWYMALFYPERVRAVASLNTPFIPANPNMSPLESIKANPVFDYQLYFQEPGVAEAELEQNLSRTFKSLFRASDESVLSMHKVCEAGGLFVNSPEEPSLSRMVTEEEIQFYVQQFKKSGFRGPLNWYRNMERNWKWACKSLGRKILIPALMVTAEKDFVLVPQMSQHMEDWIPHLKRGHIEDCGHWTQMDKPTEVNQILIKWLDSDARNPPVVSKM
Put plainly: sEH human enzyme assay (fluorescence based enzyme in vitro assay). The format is biochemical. The note with it: recombinant human sEH about 1 nM, fluorescence substrate S7 10 uM, pH7.0, 25° C.; read-out: IC50 [nM] for human sEH enzyme inhibition. The source says: Preparation of Recombinant sEH Human Enzyme
The DNA for expressing sEH was designed based on a […] sEH cDNA. Necessary Modifications were introduced to optimize for its expression both in E. coli and insect cells. The designed DNA fragment encodes a protein sequence that is identical to full length human sEH, and the DNA was synthesized in vitro. The DNA was then subcloned into the pET100 vector that will generate a fusion protein with an N-terminal His-tag. The recombinant protein was expressed in E. coli. The sEH enzyme was affinity purified by a Ni^++ column. His-tag was removed by Enter Kinase (EK) digestion. The purified enzyme aliquots were frozen and held at −80° C. for later use.
Fluorescence Based Enzyme In Vitro Assay
For each assay (100 ul), an aliquot of enzymes (about 1 nM final concentration) was incubated with a fluorescence substrate, S7 (10 uM final concentration), in sEH assay buffer (25 mM HEPES, pH7.0, 0.1 mg/ml BSA) in a 96-well plate. The kinetic reaction reading (Ex330/Em465) was conducted using a plate reader, Spectra max (Molecular Devices) at 25° C.
For `O=C(Nc1ccc(Cl)cc1)N1CCCC(CCc2nnn[nH]2)(c2ccccc2)C1` (stereo not drawn) [Example 47], the IC50 was found to be 5 nM.
To `CC1(c2ccccc2)CCCN(C(=O)NC2C3CC4CC(C3)CC2C4)C1` (stereo not drawn) [Example 29] belongs 10 nM; to `CC1(c2ccccc2)CCCN(C(=O)NCc2ccc(-c3ccc4[nH]ccc4c3)cc2)C1` (stereo not drawn) [Example 42], 7 nM; to `CC1(c2ccccc2)CCCN(C(=O)Nc2noc3ccccc23)C1` (stereo not drawn) [Example 13], 59 nM.
To `NC(=O)CCC1(c2ccccc2)CCCN(C(=O)Nc2ccc(Cl)cc2)C1` (stereo not drawn) [Example 45] belongs 5 nM; to `O=C(Nc1ccc(Cl)cc1)N1CCCC(COCc2cc(C(F)(F)F)cc(C(F)(F)F)c2)(c2ccccc2)C1` (stereo not drawn) [Example 1], 2 nM.
For the compound `N#CCCC1(c2ccccc2)CCCN(C(=O)Nc2ccc(Cl)cc2)C1` (stereo not drawn) [Example 46], the IC50 is 3 nM.
Take `CC1(c2ccccc2)CCCN(C(=O)NCc2ccc(-c3cccnc3)cc2)C1` (stereo not drawn) [Example 41]: the IC50 was 1.5 nM.
The result for `CC1(c2ccccc2)CCCN(C(=O)NCC2CCc3ccccc3C2)C1` (stereo not drawn) [Example 35] reads 2 nM; that for `CC1(c2ccccc2)CCCN(C(=O)NCc2ccc(-c3ccccc3Cl)cc2)C1` (stereo not drawn) [Example 40], 6 nM.
To `CC1(c2ccccc2)CCCN(C(=O)Nc2nnc(-c3ccccc3)s2)C1` (stereo not drawn) [Example 12] belongs 341 nM; to `N#CC1(Cc2ccccc2)CCCN(C(=O)Nc2ccc(C(F)(F)F)cc2)C1` (stereo not drawn) [Example 17], 2 nM.
To `CC1(c2ccccc2)CCCN(C(=O)NCCc2ccc(Cl)cc2)C1` (stereo not drawn) [Example 30] belongs below 1 nM; to `CCOC(=O)C1(Cc2nccn2Cc2ccccc2)CCCN(C(=O)Nc2ccc(C(F)(F)F)cc2)C1` (stereo not drawn) [Example 24], 7 nM.
On to `O=C(O)CCC1(c2ccc(F)cc2)CCCN(C(=O)NCCCc2ccccc2)C1` (stereo not drawn) [Example 8], for which the IC50 was determined as 6 nM.
The result for `O=C(O)CCC1(c2ccccc2)CCCN(C(=O)Nc2ccc(Cl)cc2)C1` (stereo not drawn) [Example 3] reads 5 nM; that for `COC(=O)CCC1(c2ccccc2)CCCN(C(=O)Nc2ccc(-n3nc(C(F)(F)F)cc3C(F)(F)F)cc2)C1` (stereo not drawn) [Example 10], 3 nM; that for `CC1(c2ccccc2)CCCN(C(=O)NC2CC2c2ccccc2)C1` (stereo not drawn) [Example 27], 1 nM.
To `CC1(c2ccccc2)CCCN(C(=O)NCCc2ccc3nccnc3c2)C1` (stereo not drawn) [Example 34] belongs 5 nM; to `O=C(Nc1ccc(C(F)(F)F)cc1)N1CCCC(Cc2ccccc2)(C(=O)NCCc2c[nH]c3ccccc23)C1` (stereo not drawn) [Example 20], below 1 nM.
The result for `CN(C)C(=O)C1(Cc2ccccc2)CCCN(C(=O)Nc2ccc(C(F)(F)F)cc2)C1` (stereo not drawn) [Example 25] reads 3 nM; that for `CNC(=O)CCC1(c2ccccc2)CCCN(C(=O)Nc2ccc(Cl)cc2)C1` (stereo not drawn) [Example 50], 5 nM; that for `CCOC(=O)C1(Cc2nc3ccccc3[nH]2)CCCN(C(=O)Nc2ccc(C(F)(F)F)cc2)C1` (stereo not drawn) [Example 22], 3 nM.
In the case of `CC1(c2ccccc2)CCCN(C(=O)NCc2ccc(-c3cccc4cnccc34)cc2)C1` (stereo not drawn) [Example 44], the IC50 stood at 3 nM.
The result for `O=C(Nc1ccc(C(F)(F)F)cc1)N1CCCC(CO)(Cc2ccccc2)C1` (stereo not drawn) [Example 14] reads 2 nM; that for `CC1(c2ccccc2)CCCN(C(=O)NC2CCc3ccccc3C2)C1` (stereo not drawn) [Example 36], 1 nM.
The result for `CCOC(=O)C1(Cc2cccc3ccccc23)CCCN(C(=O)Nc2ccc(C(F)(F)F)cc2)C1` (stereo not drawn) [Example 21] reads 3 nM.
The result for `CC1(c2ccccc2)CCCN(C(=O)NC[C@H]2C[C@@H]2c2ccccc2)C1` (stereo in doubt) [Example 28] reads 7 nM.
For the compound `O=C(Nc1ccc(Cl)cc1)N1CCCC(Cc2ccc(Cl)cc2)(c2ccccc2)C1` (stereo not drawn) [Example 5], the IC50 is below 1 nM.
Consider `COC(=O)CCCC1(c2ccccc2)CCCN(C(=O)Nc2ccc(Cl)cc2)C1` (stereo not drawn) [Example 51], for which the IC50 is below 1 nM.
As to `O=C(Nc1ccc(C(F)(F)F)cc1)N1CCCC(Cc2ccccn2)(C(=O)OCc2ccccc2)C1` (stereo not drawn) [Example 23], the IC50 stood at 2 nM.
To `O=C(CCC1(c2ccccc2)CCCN(C(=O)Nc2ccc(Cl)cc2)C1)Nc1nnn[nH]1` (stereo not drawn) [Example 48] belongs 1 nM.
Take `CC1N(C(=O)Nc2ccc(Cl)cc2)CCCC1(C)c1ccccc1` (stereo not drawn) [Example 4]: the IC50 worked out at 5 nM.
The result for `O=C(NCc1ccc(Cl)c(Cl)c1)N1CCCC(CCc2noc(C(F)(F)F)n2)(c2ccccc2)C1` (stereo not drawn) [Example 18] reads 5 nM.
As for `CC1(c2ccccc2)CCCN(C(=O)NCc2nc3ccccc3s2)C1` (stereo not drawn) [Example 38], the IC50 worked out at 30 nM.
To `COC(=O)CCC1(c2ccc(F)cc2)CCCN(C(=O)NCCCc2ccccc2)C1` (stereo not drawn) [Example 7] belongs below 1 nM; to `O=C(NC1(Cc2ccccc2)CCCN(C(=O)Nc2ccc(C(F)(F)F)cc2)C1)OCc1ccccc1` (stereo not drawn) [Example 15], 5 nM.
To `CC1(c2ccccc2)CCCN(C(=O)NCCCc2cccnc2)C1` (stereo not drawn) [Example 33] belongs 6 nM; to `CC1(c2ccccc2)CCCN(C(=O)Nc2cccnc2)C1` (stereo not drawn) [Example 32], 306 nM; to `CNC(=O)C1(Cc2ccccc2)CCCN(C(=O)Nc2ccc(C(F)(F)F)cc2)C1` (stereo not drawn) [Example 16], 6 nM.
As for `O=C(O)CCCC1(c2ccccc2)CCCN(C(=O)Nc2ccc(Cl)cc2)C1` (stereo not drawn) [Example 52], the IC50 was 12 nM.
In the case of `O=C(O)CCC1(c2ccc(-c3ccccc3)cc2)CCCN(C(=O)Nc2ccc(OC(F)(F)F)cc2)C1` (stereo not drawn) [Example 6], the IC50 turned out to be 8 nM.
For `CC1(c2ccccc2)CCCN(C(=O)NCCCCc2ccccc2)C1` (stereo not drawn) [Example 31], the IC50 stood at 1 nM.
To `O=C(O)CCC1(c2ccccc2)CCCN(C(=O)Nc2ccc(-n3nc(C(F)(F)F)cc3C(F)(F)F)cc2)C1` (stereo not drawn) [Example 11] belongs 3 nM; to `CCOC(=O)C1(Cc2c(Cl)cccc2Cl)CCCN(C(=O)Nc2ccc(C(F)(F)F)cc2)C1` (stereo not drawn) [Example 9], below 1 nM; to `CC1(c2ccccc2)CCCN(C(=O)NC2CCc3ccccc3CC2)C1` (stereo not drawn) [Example 37], 2 nM.
To `Cc1nc(C2(C)CCCN(C(=O)Nc3ccc(C(F)(F)F)cc3)C2)no1` (stereo not drawn) [Example 49] belongs 5 nM; to `CC1(c2ccccc2)CCCN(C(=O)NCc2ccc(-c3ccc4cn[nH]c4c3)cc2)C1` (stereo not drawn) [Example 43], 6 nM.
